Measured values reported in US20100144672A1, “PYRIMIDINYL PYRAZOLES AS INSECTICIDES AND PARASITICIDE ACTIVE AGENTS” (BAYER CROPSCIENCE AG, priority 2006, published 2010).

Columns and labels:
Format in all cases: in vivo
Lucilia cuprina larvae = test: Lucilia cuprina test (LUCICU); conditions: 48 h, application rate 100 ppm, after 2 d, treated horse meat, read-out: activity (kill in %, larvae)
Experimental: Lucilia cuprina Test (LUCICU) Solvent: dimethyl sulphoxide To produce a suitable preparation of active compound, 1 part by weight of active compound is mixed with the stated amount of water, and the concentrate is diluted with water to the desired concentration. Containers containing horse meat treated with the active compound preparation of the desired concentration are populated with Lucilia cuprina larvae. After the desired period of time, the kill in % is determined 100% means that all larvae have been killed; 0% means that none of the larvae have been killed.

[1] = system: larvae of the mustard beetle (Phaedon cochleariae); test: Phaedon test (PHAECO spray treatment); conditions: 168 h, application rate 500 g/ha, after 7 d, read-out: activity (effect in %, beetle larvae killed)
Experimental: Phaedon Test ([…] Spray Treatment) [table] To produce a suitable preparation of active compound, 1 part by weight of active compound is mixed with the stated amounts of solvents and emulsifier, and the concentrate is diluted with emulsifier-containing water to the desired concentration. Discs of chinese cabbage (Brassica pekinensis) are sprayed with an active compound preparation of the desired concentration and, after drying, populated with larvae of the mustard beetle (Phaedon cochleariae). After the desired period of time, the effect in % is determined 100% means that all beetle larvae have been killed; 0% means that none of the beetle larvae have been killed.

[2] = system: caterpillars of the army worm (Spodoptera frugiperda); test: Spodoptera frugiperda test (SPODFR spray treatment); conditions: 168 h, application rate 500 g/ha, after 7 d, read-out: activity (effect in %, caterpillars killed)
Experimental: Spodoptera frugiperda Test (SPODFR Spray Treatment) [table] To produce a suitable preparation of active compound, 1 part by weight of active compound is mixed with the stated amounts of solvents and emulsifier, and the concentrate is diluted with emulsifier-containing water to the desired concentration. Discs of maize leaves (Zea mays) are sprayed with an active compound preparation of the desired concentration and, after drying, populated with caterpillars of the army worm (Spodoptera frugiperda). After the desired period of time, the effect in % is determined 100% means that all caterpillars have been killed; 0% means that none of the caterpillars have been killed.

| Compound | pest or weed control at 100 ppm (Lucilia cuprina larvae) | pest or weed control at 500 g/ha [1] | pest or weed control at 500 g/ha [2] |
| --- | --- | --- | --- |
| Nc1c(-c2ccc(Cl)cc2)c(C(F)(F)F)nn1-c1ncccn1 [Example 1-6, 4-(4-chlorophenyl)-1-pyrimidin-2-yl-3-(trifluoromethyl)-1H-pyrazole-5-amine] | ≥ 80% | ≥ 80% | ≥ 80% |
| Nc1c(-c2ccc(Br)cc2)c(C(F)(F)F)nn1-c1ncccn1 [Example 1-9, 4-(4-bromophenyl)-1-pyrimidin-2-yl-3-(trifluoromethyl)-1H-pyrazole-5-amine] | ≥ 80% | ≥ 80% | ≥ 80% |
| Nc1c(-c2ccc(F)c(Cl)c2)c(C(F)(F)F)nn1-c1ncccn1 [Example 1-79, 4-(3-chloro-4-fluorophenyl)-1-pyrimidin-2-y1-3-(trifluoromethyl)-1H-pyrazole-5-amine] | ≥ 80% | ≥ 80% | ≥ 80% |
| Nc1c(-c2ccc(Cl)c(Cl)c2)c(C(F)(F)F)nn1-c1ncccn1 [Example 1-80, 4-(3,4-dichlorophenyl)-1-pyrimidin-2-yl-3-(trifluoromethyl)-1H-pyrazole-5-amine] | ≥ 80% | ≥ 80% | ≥ 80% |
| Nc1c(-c2cc(Cl)cc(C(F)(F)F)c2)c(C(F)(F)F)nn1-c1ncccn1 [Example 3-25, 4-(3-chloro-5-trifluoromethylphenyl)-2-pyrimidin-2-yl-5-trifluoromethyl-2H-pyrazol-3-ylamine] | ≥ 80% | ≥ 80% | ≥ 80% |
| COc1ccc(-c2c(C(F)(F)F)nn(-c3ncccn3)c2N)cc1 [Example 5-22] | ≥ 80% | ≥ 80% | – |
| Nc1c(-c2ccc(SC(F)(F)F)cc2)c(C(F)(F)F)nn1-c1ncccn1 [Example 5-62] | ≥ 80% | ≥ 80% | – |
| CCNc1c(-c2ccc(Cl)cc2)c(C(F)(F)F)nn1-c1ncccn1 [Example 12-7, 4-(4-chlorophenyl)-N-ethyl-l-pyrimidin-2-yl-3-(trifluoromethyl)-1H-pyrazole-5-amine] | ≥ 80% | ≥ 80% | ≥ 80% |
| FC(F)(F)c1nn(-c2ncccn2)c(Cl)c1-c1ccc(Cl)cc1 [Example 14-7] | ≥ 80% | ≥ 80% | ≥ 80% |
| CC(=O)N(C(C)=O)c1c(-c2ccc(Cl)c(Cl)c2)c(C(F)(F)F)nn1-c1ncccn1 [Example 29-37, N,N-diacetyl-4-(3,4-dichlorophenyl)-1-pyrimidin-2-yl-3-(trifluoromethyl)-1H-pyrazole-5-amine] | – | ≥ 80% | ≥ 80% |
